Experiment: Degradation studies with human plasma (20% human serum)
Assay type: in vitro ADME
Conditions: 20% human serum (from human male AB plasma) in water, 37 °C, glycopeptide 0.5 mg·mL-1, sampled every hour, UPLC-micrOTOF-Q
Description: We examined then the stability of the unnatural MUC1 derivative in human plasma. To this end, we synthesized glycopeptides APDThr(α-D-GalNAc)RP and APDMeSer(α-D-GalNAc)RP (ESI ^†). The degradation of the glycopeptide containing threonine was faster (around 1.8-fold) compared to the unnatural compound. […]
an r−6 averaging. The equilibrium distance range was set to rexp − 0.2 Å ≤ rexp ≤ rexp + 0.2 Å.
Trajectories were run at 298 K, with a decay constant of 2000 ps and a time step of 1 fs.
The force constants rk2 and rk3 used in each case were 10 kcal·mol−1·Å−2. The overall simulation length for the simulations was 20 ns. The coordinates were saved each 1 ps, thus, obtaining MD trajectories of 20000 frames each. A convergence within the equilibrium distance range was obtained in the simulations. The analysis of the MD-tar trajectories has been carried out with the cpptraj modules of AMBER 12.
Degradation studies with human plasma.
Commercially available serum from human male AB plasma was used. […] Degradation of the peptides was determined every hour by using UPLC-micrOTOF-Q (column: ACQUITY UPLC BEH C18 1,7; diameter: 2.1 mm and length: 100 mm), eluting a mixture of 5 µL of the glycopeptide-serum solution in 795 µL of water and employing an isocratic method (70% H2O, 30% acetonitrile, temperature: […]

degradation, faster compared to the unnatural compound APDMeSer(α-D-GalNAc)RP: around 1.8 fold
Compound: CC(=O)N[C@H]1[C@@H](O[C@H](C)[C@H](NC(=O)[C@H](CC(=O)O)NC(=O)[C@@H]2CCCN2C(=O)[C@H](C)N)C(=O)N[C@@H](CCCNC(=N)N)C(=O)N2CCC[C@H]2C(N)=O)O[C@H](CO)[C@H](O)[C@@H]1O [APDThr(α-D-GalNAc)RP]

Source: PMC5977504, “Mucin architecture behind the immune response: design, evaluation and conformational analysis of an antitumor vaccine derived from an unnatural MUC1 fragment” (Chemical Science, 2015)
